Measurements: PMC6602202, “Enteroendocrine peptides regulate feeding behavior via controlling intestinal contraction of the silkworm Bombyx mori” (PLoS ONE, 2019)

Assays:
[1] = system: foregut of Lacanobia oleracea; settings: cited from earlier work
Excerpt: (§1) AT-producing EEs (Fig 2C and 2D) and GSRYamide-producing EEs (Fig 2E and 2F) also have the potential to deliver secretory granules containing peptidyl factors to the hemocoel side through a cellular membrane. Those EEs have similar cellular morphology to EEs releasing other arthropod neuropeptide CCAP (Crustacean cardioactive peptide) observed in the American cockroac ...

[2] = system: foregut of Helicoverpa armigera; settings: cited from earlier work
Excerpt: as §1

[3] = system: foregut, midgut and hindgut; settings: other insect species; 48 (foregut), 27, 49 (midgut), 50, 51 (hindgut); cited from earlier work
Excerpt: AT was originally isolated from extracts of heads of pharate adult tobacco hornworm, Manduca sexta as an allatoregulatory peptide. […] Consistently, it is possible in other insect species that ...

foregut and hindgut = assay: Wash-out of contraction inhibition, isolated gut; design: species or system Bombyx mori; settings: washing with the vehicle without the ligands
Description: The opened head and abdominal portion of 2-day-old fifth-instar larvae (fed ad libitum and non-fed for 16 h) were washed twice with B. mori Ringer’s solution and incubated for 3 min at 27°C to stabilize the movement. After incubation, the contractile movements of the larval foregut and hindgut, particularly the spontaneous contraction of the pharynx and ileum (predominantly contracting area in hindgut) were observed and recorded using a digital microscope USB2.0 DigiScope II v2^TM (CHRONOS, Taipei, Taiwan). 100 μL of B. mori Ringer’s solution was added to the examined gut at 60 s after starting recording. Furthermore, 100 μL of B. mori Ringer’s solution (vehicle control) and 100 μL peptide-containing solution (10^−9–10^−5 M of peptides dissolved in B. mori Ringer’s solution) were exposed over gut at 120 s after a recording start. The contractile movements were analyzed using ImageJ software (https://imagej.net/Fiji) with the Optic flow plug-in (Gaussian window MSE). […] The position of the lines used for the kymograph analyses (x-y, z-w) were determined by Optic flow analyses. The waveform of the kymographs, corresponding to the visible contractions in the recorded movies, were quantified and converted to myograms. […] Invisible contractions in the recorded movie and extremely small amplitudes in the myograms were considered as no significant contractions. […]

ileum = assay: Spontaneous contraction of the ileum in dissected open larvae; design: species or system Bombyx mori
Description: The opened head and abdominal portion of 2-day-old fifth-instar larvae (fed ad libitum and non-fed for 16 h) were washed twice with B. mori Ringer’s solution and incubated for 3 min at 27°C to stabilize the movement. After incubation, the contractile movements of the larval foregut and hindgut, particularly the spontaneous contraction of the pharynx and ileum (predominantly contracting area in hindgut) were observed and recorded using a digital microscope USB2.0 DigiScope II v2^TM (CHRONOS, Taipei, Taiwan). 100 μL of B. mori Ringer’s solution was added to the examined gut at 60 s after starting recording. Furthermore, 100 μL of B. mori Ringer’s solution (vehicle control) and 100 μL peptide-containing solution (10^−9–10^−5 M of peptides dissolved in B. mori Ringer’s solution) were exposed over gut at 120 s after a recording start. The contractile movements were analyzed using ImageJ software (https://imagej.net/Fiji) with the Optic flow plug-in (Gaussian window MSE). The direction of contractile movement was represented by the color and arrows described in the ‘Direction’ map. The position of the lines used for the kymograph analyses (x-y, z-w) were determined by Optic flow analyses. The waveform of the kymographs, corresponding to the visible contractions in the recorded movies, were quantified and converted to myograms. The number of contractions in 60 s was defined as the ‘contraction frequency’. Invisible contractions in the recorded movie and extremely small amplitudes in the myograms were considered as no significant contractions. The evaluation of visible contraction was defined by giving a threshold at the half length of the observed amplitude. The effect of synthetic peptides was represented by the ratio of the ‘contraction frequency’ at 60–120 s to 120–180 s (%) due to the extendedly various frequencies by individuality; the pharynx (30-40/60s) and hindgut (20-40/60s). This methodology by kymograph is substantially corresponding to the previously used assays for intestinal contraction. […]

BNGR-A5 = assay: aequorin-based bioluminescent calcium assay, CHO cells expressing BNGR-A5; assay type: cell-based, Bombyx mori; settings: aequorin luminescence 20 s, triplicates, three experiments
Description: Activity of the BNGR-A5 and -16 receptors were analyzed using Chinese hamster ovary (CHO) cells transiently transfected with plasmids for expression of each BNGR, calcium-sensitive reporter aequorin and chimeric G protein that couple with receptor activation to an intracellular Ca^2+-increase independent of the endogenous receptor signaling cascade. The entire open reading frames of BNGR-A5 and -16 were cloned into pcDNA3.1(+) vector (Invitrogen) with a Kozak translation initiation sequence incorporated at 5´end. Plasmids for codon optimized aequorin and chimeric G proteins were used as described previously. […]
The transfected cells were detached using PBS supplemented with 0.2% EDTA and rinsed of the culture plates with the assay medium—phenol red free DMEM/F12 with L-glutamine and 15 mM HEPES (PAN Biotech, Wimborne, Dorset, UK), 0.1% BSA (Sigma-Aldrich Co. LLC.) and 1% penicillin/streptomycin (Life Technologies). […] Emitted luminescence signal corresponding to the ligand-induced intracellular Ca^2+ release was recorded for 20 s using the GloMax-Multi+ Detection System (Promega). […]

allatotropin
effect on spontaneous contraction of the foregut, L. oleracea [1]: regulate spontaneous contraction of the foregut
effect on spontaneous contraction of the foregut, H. armigera [2]: regulate spontaneous contraction of the foregut
myoregulatory activity on foregut, midgut and hindgut [3]: myoregulatory activities
reversibility of inhibition on washing (foregut and hindgut): did not resume even after washing
contraction of ileum (movie) (ileum; 10^−6 M exposed at 120 s, larvae fed ad libitum): the contraction of ileum was inhibited
relative frequency of contraction, ileum, fed ad libitum (ileum; larvae fed ad libitum, 10^−9–10^−5 M, 27°C, 60–120 s vs 120–180 s, n = 5): decreased relative frequency of contraction
relative frequency of contraction, ileum, non-fed (ileum; larvae non-fed for 16 h, 10^−9–10^−5 M, 27°C, n = 5): decreased the frequency
affinity, BNGR-A5 (BNGR-A5): much higher affinity to AT than BNGR-A16
